US20060240026A1, “Preventing and/or remedy hematopoietic tumor” (GREEN PEPTIDE CO., LTD., priority 2003, published 2006)
“Also recorded” adds a separate entry of the source. Ends that are not written are not given here.

How the values were obtained:
[1] = Side effects and skin test, chronic lymphocytic leukemia patient; assay type: in vivo, human
Method: Three kinds of emulsions each of which contains each of these peptides respectively and an adjuvant were prepared according to the method described in Example 1, and vaccinated to the patient by injecting subcutaneously at different sites of the patient's lateral thigh. […] The skin test was conducted by injecting intradermally the solution of 50 μg of each peptide in physiological saline and determining immediate-type or delayed-type hypersensitivity reaction at 20 minutes or 24 hours after the injection.
Therefore, SART-293 (SEQ ID NO: 5) and SART-3109 (SEQ ID NO: 8) were used for vaccination. […] In the clinical trials of peptide vaccines in epithelial cancer patients, there has been observed a correlation between the survival rate of patients and the increased humoral immune responses against the peptides used in the vaccines. From these facts, it was believed that SART-293 (SEQ ID NO: 5) and SART-3109 (SEQ ID NO: 8) were effective in this patient.
Thus, there were very few side effects observed.

[2] = test system: PBMCs of HLA-A24+ patients with hematologic malignancies; test: IFN-γ production by peptide-stimulated patient PBMCs in response to peptide-pulsed C1R-A24 cells; assay type: cell-based, human; set-up: peptide-specific IFN-γ production: unit not given here; conditions: for peptide-specific IFN-γ production: 10 μM peptide in vitro, vs peptide-pulsed C1R-A24, HIV-peptide background subtracted
Method: The induction of peptide-specific cytotoxic T lymphocytes from PBMCs of a patient with hematologic malignancy was conducted as reported preveously (Non-Patent Reference 5). The following peptides were used to induce cytotoxic T lymphocytes: p56^lck protein-derived peptides (Lck208 (SEQ ID NO: 1), Lck488 (SEQ ID NO: 2) and Lck486 (SEQ ID NO: 3)); SART-1-derived peptide (SART-1690 (SEQ ID NO: 4)); SART-2-derived peptides (SART-293 (SEQ ID NO: 5), SART-2161 (SEQ ID NO: 6) and SART-2899 (SEQ ID NO: 7)); SART-3-derived peptides (SART-3109 (SEQ ID NO: 8) and SART-3315 (SEQ ID NO: 9)); and ART-1-derived peptide (ART-1170 (SEQ ID NO: 10)). All of these peptides are the epithelial cancer-related antigen-derived peptides and have the ability to induce cytotoxic T lymphocytes from PBMCs of an epithelial cancer patient in an HLA-A24 dependent manner (Non-Patent References 3-6 and 12). A human immunodeficiency virus (HIV)-derived peptide (SEQ ID NO: 11) and Epstein-Barr virus (EBV)-derived peptide (SEQ ID NO: 12) were used respectively as a negative control peptide and positive control peptide both of which have an HLA-A24-binding motif. […] PBMCs were prepared from peripheral blood that was collected from a patient with hematologic malignancy using Ficoll-Conray density-gradient centrifugation. The expression of HLA-A24 molecules on PBMCs was determined using flow cytometry by a well known method (Non-Patent Reference 5). The induction of cytotoxic T lymphocytes from PBMCs was conducted as follows. […] The culture medium consisted of 45% RPMI-1640, 45% AIM-V (Invitrogen), 10% FCS, 100 U/ml of interleukin-2 (IL-2), and 0.1 mM MEM non-essential amino acid solution (Invitrogen). […] The background IFN-γ production in response to the HIV-derived peptide (SEQ ID NO: 11) was subtracted from the values given in the data. When the mean value of the IFN-γ produced from the peptide-stimulated PBMCs in response to a corresponding peptide was higher than that produced in response to the HIV peptide (SEQ ID NO: 11), it was judged that the precursor of a peptide-specific cytotoxic T lymphocyte was present in the PBMCs and that the peptide-specific cytotoxic T lymphocytes were induced by the peptide. PBMCs of ten cases of HLA-A24^+ patients with hematologic malignancies (two cases with CLL, one case with MCL, one case with NHL, one case with B-ALL, one case with MM, one case with MDS, two cases with ATL, and one case with T-ALL) were tested for the induction of cytotoxic T lymphocytes using peptides that were derived from p56^lck protein, SART-1, SART-2, SART-3 and ART-1. The peptides used were the peptides that induced peptide-specific tumor-reactive cytotoxic T lymphocytes from PBMCs of an HLA-A24^+ epithelial cancer patient, which are currently on clinical trials for use as vaccines for epithelial cancer patients. The PBMCs were stimulated with the peptide in vitro to measure the peptide-specific IFN-γ production.

[3] = test system: C1R-A24 cells pulsed with the peptides; test: IFN-γ production of PBMCs of vaccinated chronic lymphocytic leukemia patient; assay type: in vivo, human; conditions: CLL patient No. 1, with the increasing number of peptide vaccination
From the text: The patient (patient No. 1 in table 2) subjected to clinical trials was a HLA-A24^+ […] suffering from chronic lymphocytic leukemia with a stage A by Bernet's classification.
(§1) Two kinds of emulsions prepared using these peptides according to the methods described in Example 5 were vaccinated to the patient by injecting subcutaneously at different sites of the patient's lateral thigh.
After each vaccination, PBMCs derived from the patient were studied for the peptide-specific cytotoxic T lymphocyte induction by measuring the amount of IFN-γ production as an indicator against C1R-A24 cells pulsed with the peptides used (see Example 3).

[4] = test system: C1R-A24 cells pulsed with the peptides; test: Cytotoxic activity of PBMCs of vaccinated chronic lymphocytic leukemia patient (51Cr-release); assay type: in vivo, human; conditions: CLL patient No. 1, PBMCs after vaccination, 51Cr-release test
From the text: as §1

[5] = test system: HLA-A24- hematologic malignant cell line (HPB-MLT); test: 51Cr-release test of peptide-stimulated PBMCs against HLA-A24- malignant line; assay type: cell-based, human; conditions: peptide-stimulated patient PBMCs further cultured with IL-2; effector/target 3, 10 or 30; 6 h
Method: (§2) Then, the cytotoxicity against hematologic malignant cell lines was examined by a standard ^51Cr-release test (Non-Patent Reference 5). Specifically, the PBMCs obtained were used as an effector to mix with ^51Cr-labelled target cells (hereinafter referred to as targets) at an effector/target rate of 3, 10 or 30, and then incubated for six hours, followed by measuring the radioactivity of ^51Cr released in the supernatants. The results obtained were indicated as % lysis which was calculated by regarding a radioactivity as 100% when the targets were completely dissolved. The following targets were used: PEER, an HLA-A24^+ hematologic malignant cell line; HPB-MLT, an HLA-A24^− hematologic malignant cell line; and an HLA-A24^+ PHA blastoid T-cell.

[6] = test system: HLA-A24+ hematologic malignant cell line (PEER, REH); test: 51Cr-release test of peptide-stimulated PBMCs against HLA-A24+ malignant line; assay type: cell-based, human; conditions: peptide-stimulated patient PBMCs further cultured with IL-2; effector/target 3, 10 or 30; 6 h
Method: as §2

[7] = test system: HLA-A24+ PHA blastoid T-cell; test: 51Cr-release test of peptide-stimulated PBMCs against normal cells; assay type: cell-based, human; conditions: peptide-stimulated patient PBMCs further cultured with IL-2; effector/target 3, 10 or 30; 6 h
Method: as §2

## VYDYNCHVDL [SART-3109]
[1]; CLL patient No. 1, after the third vaccination
  delayed-type hypersensitivity reaction: delayed-type hypersensitivity reaction was observed

## SART-293: SART-2-derived peptide; epithelial cancer-related antigen peptide (DYSARWNEI; Partial peptide of SART-2)
[2]; PBMCs of patient #1 CLL
  peptide-specific IFN-γ production: 0
[2]; PBMCs of patient #2 CLL
  peptide-specific IFN-γ production: 440
[2]; PBMCs of patient #3 MCL
  peptide-specific IFN-γ production: 9
[2]; PBMCs of patient #4 NHL
  peptide-specific IFN-γ production: 63
[2]; PBMCs of patient #5 B-ALL
  peptide-specific IFN-γ production: 20
[2]; PBMCs of patient #6 MM
  peptide-specific IFN-γ production: 28
[2]; PBMCs of patient #7 MDS
  peptide-specific IFN-γ production: 0
[2]; PBMCs of patient #8 ATL
  peptide-specific IFN-γ production: 0
[2]; PBMCs of patient #9 ATL
  peptide-specific IFN-γ production: 354
[2]; PBMCs of patient #10 T-ALL
  peptide-specific IFN-γ production: 192
[2]; ten HLA-A24+ patients with hematologic malignancies
  Responding case/total (enhancement of IFN-γ production): 3/10
[3]
  IFN-γ production in response to C1R-A24 cells pulsed with the peptide: enhanced production of interferon (IFN)-γ
[4]
  cytotoxic activity against peptide-pulsed C1R-A24 cells versus cells pulsed with HIV-derived peptide: higher cytotoxic activity

## EYCLKFTKL [ART-1170]
[1]; CLL patient No. 1, before vaccination
  immediate hypersensitivity reaction in skin test: caused immediate hypersensitivity reaction

## AYDFLYNYL [SART-2161]
[5]
  cytotoxic activity (% lysis) against HLA-A24- hematologic malignant line: did not show cytotoxic activity; also recorded: did not exhibit cytotoxic activity
[6]
  cytotoxic activity (% lysis) against HLA-A24+ hematologic malignant line: significant cytotoxic activity; also recorded: exhibited cytotoxic activity
[7]
  cytotoxic activity (% lysis) against HLA-A24+ PHA blastoid T-cells: did not show cytotoxic activity; also recorded: did not exhibit cytotoxic activity
